Experimental data as given in patent US20240116921A1, “LACTAM (HETERO)[…] DERIVATIVES AS INHIBITORS OF ERBB2” (EnLiven Therapeutics, Inc., priority 2020, published 2024).

Assays:
[1] = biological target: Ba/F3 ERBB2 A775_G776insYVMA (Homo sapiens, UniProt P04626, DUP772-775, cells depend on it); assay: Cell viability assay, Ba/F3 ERBB2 A775_G776insYVMA; format: cell-based, mouse; settings: Ba/F3 ERBB2 YVMA cells, cell viability, 72 hours, CellTiter Glo; Table B5; read-out: Ba/F3 ERBB2 YVMA, IC50
Outline: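 Viability after 72 h compound treatment (37 °C, 5% CO2) was quantified by CellTiter-Glo luminescence of intracellular ATP, with sigmoidal dose-response fitting. Cells were retrovirally engineered Ba/F3 lines whose growth depends on the mutant human ERBB2 in place of IL-3, plated at 3000 per well.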

[2] = biological target: T1, phosphorylated ERBB2 (pERBB2) (Homo sapiens, UniProt P04626); assay: Detection of phosphorylated ERBB2 (pERBB2) by ELISA in BT-474 cells; format: cell-based; settings: four hours incubation
T1 construct: endogenous in cells; host or cells: BT-474
Outline: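 Phospho-ERBB2 in lysates was quantified by sandwich ELISA (A450, TMB) after 4 h compound exposure at 37 °C of BT-474 cells seeded at 2.0×10^4 per well. Compounds tested at 10 µM to 0.01 nM final in four-fold steps; activity normalized to DMSO (0.1%) high and cell-free low controls.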

[3] = biological target: T2, phosphorylated EGFR (pEGFR) (Homo sapiens, UniProt P00533); assay: Detection of phosphorylated EGFR (pEGFR) in EGF-stimulated A431 cells; format: cell-based; settings: A431 cells (10% FBS), 4 hours incubation, EGF 30 ng/mL 10 minutes, AlphaLISA
T2 construct: performed to measure phosphorylated EGFR levels using A431 cells (10% FBS); endogenous in cells; host or cells: A431
Outline: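 AlphaLISA read-out of EGFR phosphorylation after a 10-min EGF pulse (30 ng/mL final). A431 cells (10% FBS) had been exposed to compound for 4 h at 37 °C. IC50 was fitted from % inhibition normalised to DMSO and staurosporine control lysates.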

T2 sequence (P00533 25-1210): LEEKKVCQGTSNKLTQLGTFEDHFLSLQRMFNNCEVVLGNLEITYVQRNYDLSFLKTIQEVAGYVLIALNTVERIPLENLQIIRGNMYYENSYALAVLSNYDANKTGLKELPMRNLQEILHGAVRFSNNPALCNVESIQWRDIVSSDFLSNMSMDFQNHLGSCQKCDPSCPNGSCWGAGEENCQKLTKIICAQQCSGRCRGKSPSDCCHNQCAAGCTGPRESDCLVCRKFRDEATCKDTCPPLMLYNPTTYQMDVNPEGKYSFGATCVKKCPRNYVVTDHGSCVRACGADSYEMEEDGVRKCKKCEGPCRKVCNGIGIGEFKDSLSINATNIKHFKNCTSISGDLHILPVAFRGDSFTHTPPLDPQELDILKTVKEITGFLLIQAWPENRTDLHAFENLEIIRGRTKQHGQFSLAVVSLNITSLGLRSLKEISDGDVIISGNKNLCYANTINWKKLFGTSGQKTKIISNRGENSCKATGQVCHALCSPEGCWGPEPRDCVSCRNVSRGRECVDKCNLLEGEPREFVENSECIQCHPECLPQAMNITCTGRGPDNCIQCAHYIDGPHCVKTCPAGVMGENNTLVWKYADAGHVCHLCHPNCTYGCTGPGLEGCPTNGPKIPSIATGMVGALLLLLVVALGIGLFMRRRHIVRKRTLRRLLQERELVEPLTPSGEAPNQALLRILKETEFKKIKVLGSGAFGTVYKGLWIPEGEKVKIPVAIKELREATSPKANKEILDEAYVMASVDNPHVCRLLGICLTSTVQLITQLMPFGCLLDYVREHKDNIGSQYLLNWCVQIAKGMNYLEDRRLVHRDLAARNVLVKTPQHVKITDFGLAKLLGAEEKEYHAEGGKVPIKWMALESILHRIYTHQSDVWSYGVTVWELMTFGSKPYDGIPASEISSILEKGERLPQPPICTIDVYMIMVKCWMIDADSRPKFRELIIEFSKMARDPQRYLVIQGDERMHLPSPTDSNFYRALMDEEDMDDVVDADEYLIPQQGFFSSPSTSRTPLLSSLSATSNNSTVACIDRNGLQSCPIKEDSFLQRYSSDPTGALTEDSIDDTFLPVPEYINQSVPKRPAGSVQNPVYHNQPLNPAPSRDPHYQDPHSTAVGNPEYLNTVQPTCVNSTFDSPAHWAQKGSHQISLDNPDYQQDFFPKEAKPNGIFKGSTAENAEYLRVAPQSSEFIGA
T1 sequence (P04626 23-1255): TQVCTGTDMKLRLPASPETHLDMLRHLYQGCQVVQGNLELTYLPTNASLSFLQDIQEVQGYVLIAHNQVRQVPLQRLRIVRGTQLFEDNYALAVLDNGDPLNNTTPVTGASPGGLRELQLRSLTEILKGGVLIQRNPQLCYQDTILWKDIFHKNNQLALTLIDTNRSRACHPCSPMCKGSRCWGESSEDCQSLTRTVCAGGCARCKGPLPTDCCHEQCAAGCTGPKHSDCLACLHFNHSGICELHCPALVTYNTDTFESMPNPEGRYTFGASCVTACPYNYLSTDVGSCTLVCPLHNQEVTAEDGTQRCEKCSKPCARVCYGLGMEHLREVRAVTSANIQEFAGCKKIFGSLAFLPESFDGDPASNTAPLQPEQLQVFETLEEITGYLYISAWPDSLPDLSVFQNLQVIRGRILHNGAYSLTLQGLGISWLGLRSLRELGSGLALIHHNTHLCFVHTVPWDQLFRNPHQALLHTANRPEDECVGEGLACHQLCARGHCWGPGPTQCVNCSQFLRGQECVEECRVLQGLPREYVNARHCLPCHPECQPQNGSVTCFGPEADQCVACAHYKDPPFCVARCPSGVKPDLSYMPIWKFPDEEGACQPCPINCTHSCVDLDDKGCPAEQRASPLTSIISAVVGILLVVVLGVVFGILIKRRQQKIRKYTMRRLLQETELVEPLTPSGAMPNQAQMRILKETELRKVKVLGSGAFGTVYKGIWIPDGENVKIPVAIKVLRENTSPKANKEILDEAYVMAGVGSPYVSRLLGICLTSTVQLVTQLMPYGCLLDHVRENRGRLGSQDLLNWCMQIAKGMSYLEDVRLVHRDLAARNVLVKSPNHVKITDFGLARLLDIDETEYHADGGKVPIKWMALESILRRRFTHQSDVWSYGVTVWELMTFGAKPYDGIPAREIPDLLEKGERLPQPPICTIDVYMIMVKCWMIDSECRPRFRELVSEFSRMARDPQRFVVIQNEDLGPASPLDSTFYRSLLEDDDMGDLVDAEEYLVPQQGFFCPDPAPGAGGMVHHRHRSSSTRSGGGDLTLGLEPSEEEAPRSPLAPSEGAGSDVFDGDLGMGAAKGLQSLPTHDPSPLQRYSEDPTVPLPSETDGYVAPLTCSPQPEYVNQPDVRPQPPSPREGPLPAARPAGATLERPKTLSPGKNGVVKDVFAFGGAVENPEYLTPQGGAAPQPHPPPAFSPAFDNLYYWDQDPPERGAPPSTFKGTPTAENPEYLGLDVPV
Sequence of Ba/F3 ERBB2 A775_G776insYVMA (P04626 with tags, fused parts or gaps DUP772-775): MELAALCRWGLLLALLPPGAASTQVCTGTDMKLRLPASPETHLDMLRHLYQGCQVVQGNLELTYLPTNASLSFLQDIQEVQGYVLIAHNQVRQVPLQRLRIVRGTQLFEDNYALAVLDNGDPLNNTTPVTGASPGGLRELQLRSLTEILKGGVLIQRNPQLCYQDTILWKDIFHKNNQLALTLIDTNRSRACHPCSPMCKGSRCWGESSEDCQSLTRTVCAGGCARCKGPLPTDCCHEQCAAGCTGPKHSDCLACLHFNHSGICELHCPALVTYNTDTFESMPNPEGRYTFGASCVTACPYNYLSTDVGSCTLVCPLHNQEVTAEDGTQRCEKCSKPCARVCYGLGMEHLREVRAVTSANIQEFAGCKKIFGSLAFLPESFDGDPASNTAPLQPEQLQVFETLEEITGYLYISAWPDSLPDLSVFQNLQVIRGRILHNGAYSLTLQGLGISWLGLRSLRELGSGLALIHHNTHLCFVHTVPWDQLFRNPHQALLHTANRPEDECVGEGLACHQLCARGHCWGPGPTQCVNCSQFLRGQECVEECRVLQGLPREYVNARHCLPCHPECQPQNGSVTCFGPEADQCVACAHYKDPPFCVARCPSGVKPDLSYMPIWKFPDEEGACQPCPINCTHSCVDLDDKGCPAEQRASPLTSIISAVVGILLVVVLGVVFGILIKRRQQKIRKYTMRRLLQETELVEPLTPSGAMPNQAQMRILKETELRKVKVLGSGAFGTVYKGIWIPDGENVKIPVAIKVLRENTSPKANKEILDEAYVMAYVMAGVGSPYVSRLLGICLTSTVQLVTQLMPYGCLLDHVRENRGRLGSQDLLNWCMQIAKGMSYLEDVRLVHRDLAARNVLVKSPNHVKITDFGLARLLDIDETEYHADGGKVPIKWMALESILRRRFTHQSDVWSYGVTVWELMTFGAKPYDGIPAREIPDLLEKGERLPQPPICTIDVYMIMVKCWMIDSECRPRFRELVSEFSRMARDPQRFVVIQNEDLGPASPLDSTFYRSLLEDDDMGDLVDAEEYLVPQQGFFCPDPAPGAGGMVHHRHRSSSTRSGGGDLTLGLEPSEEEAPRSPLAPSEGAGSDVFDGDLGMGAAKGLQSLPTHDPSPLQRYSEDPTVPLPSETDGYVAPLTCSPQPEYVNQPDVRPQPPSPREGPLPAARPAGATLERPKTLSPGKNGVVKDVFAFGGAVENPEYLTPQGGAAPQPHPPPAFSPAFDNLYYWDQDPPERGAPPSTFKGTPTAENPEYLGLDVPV

Compound	GI50 [1] [nM]	IC50 [2] [nM]	IC50 [3] [nM]
C=C1CCN(c2ccc3ncnc(Nc4ccc(Oc5ccc6c(c5)ncn6C)c(C)c4)c3c2)C1=O [Compound 27, 1-[4-({3-methyl-4-[(1-methyl-1,3-benzodiazol-5-yl)oxy]phenyl}amino)quinazolin-6-yl]-3-methylidenepyrrolidin-2-one]	11.3	17.1	604
C=C1CCN(c2cc3c(Nc4ccc(Oc5ccn6ncnc6c5)c(C)c4)ncnc3cn2)C1=O [Compound 28, 1-(4-((4-([1,2,4]triazolo[1,5-a]pyridin-7-yloxy)-3-methylphenyl)amino)pyrido[3,4-d]pyrimidin-6-yl)-3-methylenepyrrolidin-2-one]	5.32	7.77	355
C=C1C(=O)N(c2ccc3ncnc(Nc4ccc(Oc5ccn6ncnc6c5)c(C)c4)c3c2)CC1CO (stereo not drawn) [Compound 29, 4-(hydroxymethyl)-1-{4-[(3-methyl-4-{[1,2,4]triazolo[1,5-a]pyridin-7-yloxy}phenyl)amino]quinazolin-6-yl}-3-methylidenepyrrolidin-2-one]	31.5	5.86	405
C=C1C(=O)N(c2ccc3ncnc(Nc4ccc(Oc5ccn6ncnc6c5)c(C)c4)c3c2)CC1CN(C)C (stereo not drawn) [Compound 30, 4-[(dimethylamino)methyl]-1-{4-[(3-methyl-4-{[1,2,4]triazolo [1,5-a]pyridin-7-yloxy}phenyl)amino]quinazolin-6-yl}-3-methylidenepyrrolidin-2-one; formic acid]	17.4	12.3	68.4
C=C1C(=O)N(c2cc3c(Nc4ccc(Oc5ccn6ncnc6c5)c(C)c4)ncnc3cn2)C[C@@H]1C [Compound 31]	3.78	15.9	117
C=C1C(=O)N(c2cc3c(Nc4ccc(Oc5ccn6ncnc6c5)c(C)c4)ncnc3cn2)C[C@H]1C [Compound 32, (4S)-4-methyl-1-{4-[(3-methyl-4-{[1,2,4]triazolo[1,5-a]pyridin-7-yloxy}phenyl)amino]pyrido[3,4-d]pyrimidin-6-yl}-3-methylidenepyrrolidin-2-one]	134	72.1	8180
Cc1cc(Nc2ncnc3ccc(N4CC/C(=C\CN(C)C)C4=O)cc23)ccc1Oc1ccc2c(c1)ncn2C [Compound 33, (E)-3-(2-(dimethylamino)ethylidene)-1-(4-((3-methyl-4-((1-methyl-1H-benzo[d]imidazol-5-yl)oxy)phenyl)amino)quinazolin-6-yl)pyrrolidin-2-one]	15.8	18.5	1140
C=C1C(=O)N(c2ccc3ncnc(Nc4ccc(Cc5ccn6ncnc6c5)c(C)c4)c3c2)C[C@H]1C [Compound 36, (S)-1-(4-((4-([1,2,4]triazolo[1,5-a]pyridin-7-ylmethyl)-3-methylphenyl)amino)quinazolin-6-yl)-4-methyl-3-methylenepyrrolidin-2-one]	80.5	40.9	2330
C=C1C(=O)N(c2ccc3ncnc(Nc4ccc(Oc5ccc6c(c5)ncn6C)c(C)c4)c3c2)C[C@H]1C [Compound 37, (S)-4-methyl-1-(4-((3-methyl-4-((1-methyl-1H-benzo [d]imidazol-5-yl)oxy)phenyl)amino)quinazolin-6-yl)-3-methylenepyrrolidin-2-one]	17.4	26.9	1020
Cc1cc(Nc2ncnc3ccc(N4CC/C(=C\CN(C)C)C4=O)nc23)ccc1Oc1ccc2c(c1)ncn2C [Compound 38, (3E)-3-[2-(dimethylamino)ethylidene]-1-[4-({3-methyl-4-[(1-methyl-1,3-benzodiazol-5-yl)oxy]phenyl}amino)pyrido[3,2-d]pyrimidin-6-yl]pyrrolidin-2-one]	2	29.3	407
C=C1CCN(c2cc3c(Nc4ccc(Oc5ccc6c(c5)ncn6C)c(C)c4)ncnc3cn2)C1=O [Compound 39, 1-(4-((3-methyl-4-((1-methyl-1H-benzo[d]imidazol-5-yl)oxy)phenyl)amino)pyrido[3,4-d]pyrimidin-6-yl)-3-methylenepyrrolidin-2-one]	14.6	36.2	497
Cc1cc(Nc2ncnc3ccc(N4CC/C(=C\CCN5CCN(C)CC5)C4=O)cc23)ccc1Oc1ccn2ncnc2c1 [Compound 40, (3E)-1-{4-[(3-methyl-4-{[1,2,4]triazolo[1,5-a]pyridin-7-yloxy}phenyl)amino]quinazolin-6-yl}-3-[3-(4-methylpiperazin-1-yl)propylidene]pyrrolidin-2-one]	> 500	30.7	> 10000
C=C1C(=O)N(c2ccc3ncnc(Nc4ccc(Oc5ccc6c(c5)ncn6C)c(C)c4)c3c2)C[C@@H]1C [Compound 41, (R)-4-methyl-1-(4-((3-methyl-4-((1-methyl-1H-benzo[d]imidazol-5-yl)oxy)phenyl)amino)quinazolin-6-yl)-3-methylenepyrrolidin-2-one]	29	29	4490
Cc1cc(Nc2ncnc3ccc(N4CC/C(=C\CCN(C)C)C4=O)cc23)ccc1Oc1ccc2c(c1)ncn2C [Compound 44, (3E)-3-[3-(dimethylamino)propylidene]-1-[4-({3-methyl-4-[(1-methyl-1,3-benzodiazol-5-yl)oxy]phenyl}amino)quinazolin-6-yl]pyrrolidin-2-one]	14.5	26.2	1940
Cc1cc(Nc2ncnc3cnc(N4CC/C(=C\CN(C)C)C4=O)cc23)ccc1Oc1ccc2c(c1)ncn2C [Compound 45, (E)-3-(2-(dimethylamino)ethylidene)-1-(4-((3-methyl-4-((1-methyl-1H-benzo[d]imidazol-5-yl)oxy)phenyl)amino)pyrido[3,4-d]pyrimidin-6-yl)pyrrolidin-2-one]	1.79	22.6	670
C=C1CCN(c2ccc3ncnc(Nc4ccc(Oc5ccc6nccnc6c5)c(C)c4)c3c2)C1=O [Compound 46, 1-(4-((3-methyl-4-(quinoxalin-6-yloxy)phenyl)amino)quinazolin-6-yl)-3-methylenepyrrolidin-2-one]	53.9	65.1	759
Cc1cc(Nc2ncnc3ccc(N4CC/C(=C\CN(C)C)C4=O)nc23)ccc1Oc1ccn2ncnc2c1 [Compound 47, (E)-1-(4-((4-([1,2,4]triazolo[1,5-a]pyridin-7-yloxy)-3-methylphenyl)amino)pyrido[3,2-d]pyrimidin-6-yl)-3-(2-(dimethylamino)ethylidene)pyrrolidin-2-one]	4.08	28.9	2220
Cc1cc(Nc2ncnc3ccc(N4CC/C(=C\CCN(C)C)C4=O)nc23)ccc1Oc1ccn2ncnc2c1 [Compound 48, (3E)-3-[3-(dimethylamino)propylidene]-1-{4-[(3-methyl-4-{[1,2,4]triazolo[1,5-a]pyridin-7-yloxy}phenyl)amino]pyrido[3,2-d]pyrimidin-6-yl}pyrrolidin-2-one]	0.837	12.4	63.5
Cc1ccc(Oc2ccc(Nc3ncnc4ccc(N5CC/C(=C\CN(C)C)C5=O)nc34)cc2C)cn1 [Compound 49, (E)-3-(2-(dimethylamino)ethylidene)-1-(4-((3-methyl-4-((6-methylpyridin-3-yl)oxy)phenyl)amino)pyrido[3,2-d]pyrimidin-6-yl)pyrrolidin-2-one]	0.999	13.9	173
C=C1CCN(c2ccc3ncnc(Nc4ccc(Oc5ccc6cncnc6c5)c(C)c4)c3c2)C1=O [Compound 50, 1-(4-{[3-methyl-4-(quinazolin-7-yloxy)phenyl]amino}quinazolin-6-yl)-3-methylidenepyrrolidin-2-one]	46.4	80.1	2150
C=C1CCN(c2ccc3ncnc(Nc4ccc(Cc5ccc6c(c5)ncn6C)c(C)c4)c3c2)C1=O [Compound 52, 1-[4-({3-methyl-4-[(1-methyl-1,3-benzodiazol-5-yl)methyl]phenyl}amino)quinazolin-6-yl]-3-methylidenepyrrolidin-2-one]	21.9	81.2	> 10000
Cc1cc(Nc2ncnc3ccc(N4CC/C(=C\CCN(C)C)C4=O)nc23)ccc1Oc1ccc2c(c1)ncn2C [Compound 53, (3E)-3-[3-(dimethylamino)propylidene]-1-[4-({3-methyl-4-[(1-methyl-1,3-benzodiazol-5-yl)oxy]phenyl}amino)pyrido[3,2-d]pyrimidin-6-yl]pyrrolidin-2-one]	2.05	35.6	76
Cc1cc(Nc2ncnc3ccc(N4CC/C(=C\CN(C)C)C4=O)nc23)ccc1Cc1ccc2c(c1)ncn2C [Compound 54, (3E)-3-[2-(dimethylamino)ethylidene]-1-[4-({3-methyl-4-[(1-methyl-1,3-benzodiazol-5-yl)methyl]phenyl}amino)pyrido[3,2-d]pyrimidin-6-yl]pyrrolidin-2-one]	5.37	42	1540
